# Test results published in patent publication US20090240070A1, “WHITENING DERMATOLOGICAL PREPARATIONS” (SHOWA DENKO K.K., priority 2006, published 2009).
# How the values were obtained:
# [1] = system: culture skin model (MEL-300) containing melanin cells; details: for Amount of melanin synthesized (% relative to the control): 0.5% by mass test article solution, 0.1 ml, 11 days of incubation, control = 100%; for inhibition of melanin synthesis compared with tranexamic acid (in words): conclusion from Table 4
# Description: The above test articles, each 0.5% by mass, were dissolved separately in sterilized water containing 10% bovine serum albumin and 1% DMSO to give test article solutions.
# The skin model was cultured for 11 days using the supplied culture medium LLMM. Each article was tested two times. The culture medium was changed every other day during the incubation.
# After 11 days of incubation, the skin model was washed and was measured for the cell survival rate by colorimetry (570 nm) with the Alamar Blue reagent (manufactured by Molecular Probe). Thereafter, the melanin synthesized in the skin model was determined in the following manner.
# The skin model was soaked overnight in a liquid which consisted of 0.2 ml of a 10 mM tris buffer solution (pH 6.8) containing 1% SDS and 0.05 mM EDTA, and 0.02 ml of 5 mg/ml Proteinase K. On the next day, 0.02 ml of 5 mg/ml Proteinase K was added, followed by heating at 45° C. for 4 hours. Consequently, the skin model was dissolved. The lysate was made alkaline with 0.025 ml of a 500 mM sodium carbonate solution, and was combined with 5 μl of 30% hydrogen peroxide, followed by heating at 80° C. for 30 minutes to perform reaction. To prepare a standard sample solution, 0.24 ml of a melanin solution of known concentration was combined with 0.025 ml of a 500 mM sodium carbonate solution and 5 μl of 30% hydrogen peroxide, followed by heating at 80° C. for 30 minutes to perform reaction.
# The standard sample solution and the lysate obtained were each cooled and extracted with 0.1 ml of chloroform/methanol (2/1). The aqueous phase was measured for the absorbance at 405 nm, and the melanin synthesized was determined using a calibration curve obtained with the standard sample.
# [2] = 0.5% by mass solution, 0.1 ml on minipig skin, 24 hours, 37° C.; HPLC
# Description: The above test articles, each 0.5% by mass, were dissolved separately in Dulbecco's PBS (−) containing 10% bovine serum albumin to give test article solutions.
# 2-cm square skin pieces of minipig (Charles River Laboratories Inc. (United States of America)) were placed in the Netwell (manufactured by Corning Incorporated), and assay rings (Teflon® rings with a center opening) on which a silicon sealant had been applied were pressed and fixed to the epidermis of the skin. Subsequently, 2 ml of a skin culture medium (TOYOBO CO., LTD.) was added to a multiwell plate, and the Netwell was set such that skin lower portions would be soaked. Each of the test article solutions, 0.1 ml, was slowly poured into the opening of assay ring. When no leakage was confirmed, the Netwell was sealed with multiplate seals and were allowed to stand in an incubator at 37° C. and 5% carbon dioxide. […]
# The test articles in the tissue extracts were determined by HPLC.
# The protein in the tissue extracts was determined by the Lowry method.
# 400 μl of the reagent 4 was added to a sample tube containing 20 μl of the tissue extract or the standard sample solution, followed by mixing. […] The absorbance at 750 nm was measured with a spectrophotometer, and the protein concentration in the tissue extract was determined using a calibration curve obtained with the standard sample.
"Determined value, amount of test article in skin tissue extract [2] [μmol/mg skin protein]",Compound,Amount of melanin synthesized (% relative to the control) [1] [%],inhibition of melanin synthesis compared with tranexamic acid (in words) [1]
,"Cc1c(C)c2c(c(C)c1OC(=O)[C@H]1CC[C@H](CN)CC1)CCC(C)(CCCC(C)CCCC(C)CCCC(C)C)O2.Cl (mixture of isomers) [b, dl-α-Tocopherol tranexamate hydrochloride]",60,inhibit the melanin synthesis more effectively than tranexamic acid
,"Cc1c(OC(=O)[C@H]2CC[C@H](CN)CC2)cc2c(c1C)OC(C)(CCCC(C)CCCC(C)CCCC(C)C)CC2.Cl (mixture of isomers) [c, dl-γ-Tocopherol tranexamate hydrochloride]",44,inhibit the melanin synthesis more effectively than tranexamic acid
0.034,"NC[C@H]1CC[C@H](C(=O)O)CC1 [a, Tranexamic acid, reference compound]",99,
